Literature values, collected in patent US20230148652A1, “ORAL PRODUCTS WITH NICOTINE-POLYMER COMPLEX” (NICOVENTURES TRADING LIMITED, priority 2021, published 2023).

How the values were obtained:
[1] = partition between octanol and water

| chemical stability (when isolated) | Molecule | solubility | logP [1] |
| --- | --- | --- | --- |
|  | CC(/C=C/C=C(C)/C=C/C(=O)O)=C\C=C\C=C(C)\C=C\C=C(C)\C=C\C(=O)O (stereo in doubt) [norbixin, (2E,4E,6E,8E,10E,12E,14E,16E,18E)-4,8,13,17-tetramethylicosa-2,4,6,8,10,12,14,16,18-nonaenedioic acid] | water soluble |  |
| chemically unstable when isolated | COC(=O)/C=C/C(C)=C\C=C\C(C)=C\C=C\C=C(C)\C=C\C=C(C)\C=C\C(=O)O [bixin, (2E,4E,6E,8E,10E,12E,14E,16Z,18E)-20-methoxy-4,8,13,17-tetramethyl-20-oxoicosa-2,4,6,8,10,12,14,16,18-nonaenoic acid] | soluble in fats and alcohols but insoluble in water |  |
|  | CC(C)[C@@H]1CC[C@@H](C)C[C@H]1OC(=O)CCC(=O)O [monomenthyl succinate] |  | 3 |
|  | ethyl benzoic acid |  | 2.9 |
|  | isopropyl benzoic acid |  | 3.5 |
